PubChem BioAssay (NCI)
Values joined by “and” are separate entries in the source; they are usually repeats but may differ in a detail not shown here. Equal values may be shown once.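 Briefly, cells in 96-well plates were exposed to five compound concentrations for 48 h, and endpoints were estimated by linear interpolation. Here, GI50 denotes the concentration required for 50% inhibition of growth. TGI: concentration producing complete growth inhibition.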

Experiments:
Test in all cases: NCI tumour cell line growth inhibition, 48 h
LOX IMVI melanoma = system: LOX IMVI melanoma
RXF 393 renal = system: RXF 393 renal
NCI-H460 lung = system: NCI-H460 lung
SK-MEL-5 melanoma = system: SK-MEL-5 melanoma
HL-60(TB) leukemia = system: HL-60(TB) leukemia
OVCAR-3 ovarian = system: OVCAR-3 ovarian
K-562 leukemia = system: K-562 leukemia
NCI-H23 lung = system: NCI-H23 lung
HCC-2998 colon = system: HCC-2998 colon
T-47D breast = system: T-47D breast

Structure (SMILES)	TGI (LOX IMVI melanoma) [µM]	TGI (RXF 393 renal) [µM]	TGI (NCI-H460 lung) [µM]	TGI (SK-MEL-5 melanoma)	TGI (HL-60(TB) leukemia) [µM]	TGI (OVCAR-3 ovarian) [µM]	TGI (K-562 leukemia) [µM]	TGI (NCI-H23 lung)	TGI (HCC-2998 colon)	TGI (T-47D breast) [µM]	GI50 (LOX IMVI melanoma) [nM]	GI50 (RXF 393 renal) [nM]	GI50 (NCI-H460 lung) [µM]	GI50 (SK-MEL-5 melanoma) [nM]	GI50 (HL-60(TB) leukemia) [nM]	GI50 (OVCAR-3 ovarian) [nM]	GI50 (NCI-H23 lung) [nM]	GI50 (HCC-2998 colon) [nM]
O=C1NCCS(=O)(=O)N2CCC[C@@H]12	> 100	> 100	> 100	> 100 µM	> 100	> 100	> 100	> 100 µM	> 100 µM	–	–	–	–	–	–	–	–	–
Cn1c(O)c(C=Nc2ccccc2Cl)c(=O)n(C)c1=O	32.2	45.4	32.8	> 100 µM	–	49.5	> 100	> 100 µM	34.2 µM	65.5	–	–	–	–	–	–	–	–
Cc1sc2nc3n(c(=O)c2c1C)N=CN(c1ccc(F)cc1)C3	> 100	> 100	> 100	> 100 µM	–	> 100	> 100	> 100 µM	> 100 µM	> 100	–	–	–	–	–	–	–	–
O=c1ccc2nc(-c3ccccn3)nn(-c3ccccc3)c-2c1	3.44	3.01	32.8	5.53 µM	3.11	3.17	–	4.84 µM	14.6 µM	–	1780	1600	15.5	2300	640	1770	2190	4180
S=c1[nH]c2ccc(I)cc2c(=S)n1Cc1ccccc1	16	9.21	16.3	13.2 µM	5.96	8.07	14.6	9.61 µM	–	5.5	–	–	–	–	–	–	–	–
COc1cc(CS(=O)c2ccc(O)cc2)cc(OC)c1OC (centres undefined)	> 100	> 100	> 100	> 100 µM	> 100	> 100	> 100	> 100 µM	–	> 100	–	–	–	–	–	–	–	–
Cc1ccc(-n2cc([Si](C)(C)C)nn2)s1	> 100	–	> 100	> 100 µM	–	> 100	> 100	> 100 µM	> 100 µM	> 100	–	–	–	–	–	–	–	–
CCOc1ccc2c(c1)c(=O)c1c(NCCN(CC)CC)ccc3nnn2c31	32	25.5	> 57.8	31.1 µM	–	> 100	> 66.2	38.6 µM	> 50.4 µM	> 100	–	–	–	–	–	–	–	–
CN(C)CCCNCc1cccc2ccccc12	> 100	> 100	> 100	> 100 µM	> 100	> 100	> 100	> 100 µM	–	> 100	–	–	–	–	–	–	–	–
CC1=NN(c2nc(N)nc(CF)n2)C(C)(C)C1	> 100	> 100	> 100	> 100 µM	> 100	–	> 100	> 100 µM	> 100 µM	> 100	–	–	–	–	–	–	–	–
Cc1nc2ccccc2c(/C=C/c2ccc(Cl)cc2)c1C(=O)/C=C/c1ccccc1	3.03	2.98	3.14	2.96 µM	4.58	2.77	–	–	3.3 µM	–	1640	1600	1.39	1610	2010	1360	–	1660
C/C=C(/C)C(=O)O[C@H]1[C@H](O)CC(c2ccc3c(c2O)C(O)=C2C(=O)C4(OC)C(O)=C(C(N)=O)C(=O)[C@H](CC(=O)c5ccccc5O)C4CC2[C@@]3(C)OC)O[C@@H]1C (some centres undefined)	0.132	–	–	0.0149 µM and 0.0199 µM	–	1.9	10.7	0.228 µM and 0.067 µM	1.25 µM and 1.05 µM	8.06	–	–	–	–	–	–	–	–
CCCC(=O)[O-].N.N.N.N.N.[Co+3].[O-][Cl+3]([O-])([O-])[O-]	> 100	–	> 100	> 100 µM	–	> 100	> 100	> 100 µM	> 100 µM	–	–	–	–	–	–	–	–	–
CC(=O)Nc1ccccc1NC1CC(C)N(c2ccccc2)N1C(C)=O (centres undefined)	–	> 10	–	> 10 µM	> 10	–	> 10	> 10 µM	> 10 µM	> 10	–	–	–	–	–	–	–	–
CC(C)(C)OC(=O)NCC(=O)N1CCN(C(=O)CNC(=O)OC(C)(C)C)CC1	> 100	–	–	> 100 µM	> 100	> 100	> 100	> 100 µM	> 100 µM	> 100	–	–	–	–	–	–	–	–
CCOC(=O)C(NC(=O)OC(C)(C)C)C(=O)OCC	–	> 100	> 100	> 100 µM	–	–	> 100	> 100 µM	> 100 µM	> 100	–	–	–	–	–	–	–	–
NCCCNCCCCN1CC1	11.8	7.83	> 100	11.7 µM	–	4.78	> 20.7	> 28 µM	> 36.2 µM	1.02	–	–	–	–	–	–	–	–
COC(=O)C(NC(=O)c1ccccc1)C(c1ccc(Cl)cc1)P(=O)(OC)OC (centres undefined)	> 100	> 100	> 100	> 100 µM	> 100	–	> 100	> 100 µM	> 100 µM	–	–	–	–	–	–	–	–	–
CC1=C(C)C(=O)C(C2=CC(=O)C=CC2=O)=C(C2=CC(=O)C=CC2=O)C1=O	> 96.1	> 100	> 100	46.2 µM	> 100	–	–	> 100 µM	> 100 µM	77.5	–	–	–	–	–	–	–	–
Oc1ccc(Cl)cc1C1=NC(/N=C\c2ccccc2)=NC(c2ccccc2)C1 (centres undefined)	–	> 100	–	61.2 µM	–	> 100	> 100	> 100 µM	–	> 100	–	–	–	–	–	–	–	–
C[N+](C)(CCNC(=O)c1cccc2cc3ccccc3nc12)Cc1ccc([N+](=O)[O-])s1	> 25	> 25	–	> 25 µM	> 25	> 25	> 25	> 25 µM	–	> 25	–	–	–	–	–	–	–	–
COC(=O)C1=C(C(=O)OC)SC2(S1)C(C(=O)OC)=C(C(=O)OC)Sc1c2ssc1=NC(C)(C)C	2.4	1.96	–	4.92 µM	4.73	3.5	9.66	6.66 µM	–	–	–	–	–	–	–	–	–	–
O=C1CSc2cc([N+](=O)[O-])ccc2N1	> 100	> 100	> 100	> 100 µM	–	> 100	> 100	> 100 µM	> 100 µM	–	–	–	–	–	–	–	–	–
COc1ccc(N2C(=O)C3c4[nH]c5ccccc5c4C4CCCCC4C3C2=O)cc1 (centres undefined)	> 100	55.6	> 100	66 µM	55.1	> 100	73.8	> 100 µM	40.7 µM	–	–	–	–	–	–	–	–	–
